Here are results for 38 molecules from PMC9977316, “The kidney drug transporter OAT1 regulates gut microbiome–dependent host metabolism” (JCI Insight, 2023).

Where a name gives a salt, the structure may show the parent alone.

Data set [1] deals with OAT1. The following applies: cited from earlier work; for Elevated in plasma of probenecid-treated humans / Decreased in urine of probenecid-treated humans: before vs 5 hours after oral probenecid.
In data set [2] the target is T1, OAT1 (Mus musculus, UniProt Q8VC69).
T1 construct: from tissue; host or cells: living mice (kidney proximal tubule); Oat1-KO versus WT
T1 sequence (Q8VC69 1-545): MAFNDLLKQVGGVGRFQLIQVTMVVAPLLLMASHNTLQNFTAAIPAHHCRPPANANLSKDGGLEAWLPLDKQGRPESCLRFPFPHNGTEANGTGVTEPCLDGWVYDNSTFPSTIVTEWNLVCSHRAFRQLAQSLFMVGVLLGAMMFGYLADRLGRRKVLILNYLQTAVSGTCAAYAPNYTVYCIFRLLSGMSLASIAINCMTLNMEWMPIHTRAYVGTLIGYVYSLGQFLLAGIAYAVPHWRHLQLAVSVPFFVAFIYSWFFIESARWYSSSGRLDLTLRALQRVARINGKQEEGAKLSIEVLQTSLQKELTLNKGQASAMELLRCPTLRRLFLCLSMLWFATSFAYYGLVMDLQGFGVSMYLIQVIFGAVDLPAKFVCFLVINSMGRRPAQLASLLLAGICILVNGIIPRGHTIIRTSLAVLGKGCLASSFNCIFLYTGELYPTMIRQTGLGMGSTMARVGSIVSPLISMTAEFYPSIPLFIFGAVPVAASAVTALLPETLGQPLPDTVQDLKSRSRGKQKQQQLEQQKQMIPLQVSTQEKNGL
Kind of data set: Serum metabolomics, effect of genotype (Oat1-KO versus WT), 2-way ANOVA. The class given is in vivo. The following applies: for effect of genotype on serum level: statistical analysis of the serum metabolome; for interaction between genotype and treatment on serum level: 2-way ANOVA, loss of Oat1 x microbiome depletion. On the procedure:
Adult male KO and WT mice were housed in a 12-hour light-dark cycle and allowed ad libitum access to food and water. Oat1-KO mice were generated and maintained as previously described ([49]). Feces were collected from mice weekly in sterile 2 mL centrifuge tubes, flash frozen, and stored at –80°C. Animals were sacrificed by CO2 inhalation, and blood samples were extracted from mice by cardiac puncture. Serum was extracted, and samples were flash frozen and stored at –80°C until further analysis.
Serum samples were shipped on dry ice to Metabolon Inc. for preparation and metabolomics. Per Metabolon Inc., proteins were removed from the serum and 5 fractions were generated for different mass spectrometry methods. […] Peaks were identified and associated with defined compounds based on retention time, mass/charge ratio, and MS/MS spectral data. Quantification of peaks was performed using AUC.
Scaled intensity for each metabolite was normalized to volume, and missing values were imputed with the lowest value for the compound. For all fold-change calculations, scaled intensities were averaged and compared with each other. Statistical comparisons were performed using the Python module, statsmodels (https://www.statsmodels.org/stable/index.html) and were made between groups by 2-way ANOVA following log transformation and FDR correction, with P < 0.05 being considered significant. Enrichment for each superpathway and subpathway was calculated using the number of total metabolites measured and the number of metabolites in each respective superpathway and subpathway, as previously described ([16]).

In data set [3] the target is T2, OAT1 (Homo sapiens, UniProt Q4U2R8).
T2 sequence (Q4U2R8 1-563): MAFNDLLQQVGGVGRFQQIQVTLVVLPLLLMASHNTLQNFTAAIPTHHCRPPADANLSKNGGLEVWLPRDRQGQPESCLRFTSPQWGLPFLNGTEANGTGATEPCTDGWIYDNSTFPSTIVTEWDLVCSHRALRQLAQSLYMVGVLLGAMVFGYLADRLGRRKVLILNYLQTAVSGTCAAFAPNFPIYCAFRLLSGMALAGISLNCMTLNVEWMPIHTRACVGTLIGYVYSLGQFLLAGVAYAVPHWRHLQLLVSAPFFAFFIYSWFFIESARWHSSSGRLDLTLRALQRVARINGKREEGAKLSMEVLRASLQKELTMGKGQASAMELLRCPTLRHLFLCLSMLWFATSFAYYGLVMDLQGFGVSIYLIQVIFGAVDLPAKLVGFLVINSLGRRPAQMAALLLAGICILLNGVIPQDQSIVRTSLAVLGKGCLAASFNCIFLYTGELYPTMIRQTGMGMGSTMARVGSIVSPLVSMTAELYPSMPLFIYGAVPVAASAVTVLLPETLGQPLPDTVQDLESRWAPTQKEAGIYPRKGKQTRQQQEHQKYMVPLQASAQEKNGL
Nature of the data set: In vitro OAT1 transport assay (inhibition of 6-carboxyfluorescein uptake). The following applies: for In vitro cell–based transport assay: this work. The class given is cell-based. Set-up: host or cells: HEK (HEK293) cells stably overexpressing human OAT1. The protocol:
Human embryonic kidney (HEK) cells stably overexpressing human OAT1 (SOLVO Biotechnology) were used for in vitro inhibition assays. […] Prior to functional assays, cells were plated in 96-well plates and grown for 24 hours or until confluent in media without blasticidin. Metabolites were added at either 1 mM or 2 mM, and serial dilution was performed down all columns. A fixed concentration of 10 μM 6-carboxyfluorescein (6-CF) was introduced to each well for 10 minutes. Cells were rinsed 3 times in ice-cold PBS, and the fluorescence was measured using a fluorescence plate reader. IC50 values were calculated using GraphPad Prism 9. Controls were carried out using probenecid, an established inhibitor of OAT1 function.

Where [4] appears, read: direction of serum change by loss of Oat1 and by microbiome depletion.

As to `COc1ccc(OS(=O)(=O)O)cc1` [4-methoxyphenol sulfate], in data set [1], the “Elevated in plasma of probenecid-treated humans” value (from here on “Elevated in plasma”) is reported as “✓”, the “plasma level in probenecid treated humans” value (shortened to “plasma level”) was “elevated in the plasma”, the “Decreased in urine of probenecid-treated humans” value (“Decreased in urine” below) was “✓” and the “urine level in probenecid treated humans” value is recorded as “decreased in the urine”. In data set [2] (setting [4]), the Status result is “Group 2”.

`O=C(O)CCc1ccccc1.O=C(O)CCc1ccccc1` [3-phenylpropionate (hydrocinnamate)]: the Status entry in data set [2] (setting [4]) is “Group 4”. For `O=C(O)/C=C/c1ccc(O)cc1` [4-hydroxycinnamate], in data set [3], the IC50 is 13.3 µM and the “In vitro cell–based transport assay” value is “× (this work)”. Moreover, the “effect of genotype on serum level” value in data set [2] is recorded as “not impacted by either variable”. On to `CC(C)C(O)(CC(=O)O)C(=O)O` (stereo not shown) [2-isopropylmalate], for which the “Elevated in plasma” value in data set [1] is listed as “✓”. For the same molecule, the Status entry in data set [2] (setting [4]) is recorded as “Group 4”. `O=S(=O)(O)Oc1ccc(O)cc1` [hydroquinone sulfate]: the “Elevated in plasma” value in data set [1] is “✓”. In addition, in data set [2] (setting [4]), the Status result was “Group 2”. Turning to `Cc1ccc(OS(=O)(=O)O)c(N)c1` [2-amino-p-cresol sulfate], the “interaction between genotype and treatment on serum level” value in data set [2] was “impacted by the interaction between the variables”. Also, the Status result in data set [2] (setting [4]) is “Group 2”. For `C[N+](C)(C)CCCCC(=O)[O-]` [N,N,N-trimethyl-5-aminovalerate], the Status result in data set [2] (setting [4]) is listed as “Group 2”. `COc1cc(CC(=O)O)ccc1OS(=O)(=O)O` [homovanillate sulfate]: the “Decreased in urine” value in data set [1] is on record as “✓”. The Status result in data set [2] (setting [4]) is reported as “Group 2”. With `OC[C@H]1OC[C@H](O)[C@@H](O)[C@@H]1O` [1,5-anhydroglucitol (1,5-AG)], the Status entry in data set [2] (setting [4]) was “Group 1”. `CCc1ccc(OS(=O)(=O)O)cc1` [4-ethylphenyl sulfate]: in data set [1], the “Decreased in urine” value is given as “✓” and the “urine level in probenecid treated humans” value was “significantly decreased in the urine”. In addition, the Status entry in data set [2] (setting [4]) is on record as “Group 2”. As to `O=C(O)Cc1c[nH]c2ccc(O)cc12` [5-Hydroxyindoleacetate], the “effect of genotype on serum level” value in data set [2] was “not impacted by either variable”.

As to `O=C(O)c1c(O)cccc1O` [2,6-dihydroxybenzoic acid], in data set [1], the “Elevated in plasma” value is given as “✓” and the “Decreased in urine” value is on record as “✓”. Also, the Status result in data set [2] (setting [4]) is listed as “Group 2”.

Take `CC(=O)NCCCC[C@H](NC(C)=O)C(=O)O` [N2,N6-diacetyllysine]: the “Decreased in urine” value in data set [1] is “✓”. In addition, the Status result in data set [2] (setting [4]) is “Group 3”. As for `O=C1Cc2ccccc2N1` [indolin-2-one], in data set [1], the “Elevated in plasma” value is listed as “✓” and the “Decreased in urine” value is recorded as “✓”. Also, the Status result in data set [2] (setting [4]) is given as “Group 2”. For the molecule 3-methoxycatechol sulfate (2), in data set [1], the “Decreased in urine” value is recorded as “✓”. In addition, the Status entry in data set [2] (setting [4]) is recorded as “Group 2”.

Take docosahexaenoylcarnitine (C22:6)*: the “interaction between genotype and treatment on serum level” value in data set [2] is on record as “impacted by the interaction between the variables”. In the case of `O=C(O)CCc1ccc(O)cc1` [3-(4-hydroxyphenyl)propionate], the Status result in data set [2] (setting [4]) is reported as “Group 2”. Same read-out and setting: next, `CC(=O)N[C@@H](CO)C(=O)O` [N-acetylserine]: “Group 4”. With `CS(=O)(=O)CC[C@H](N)C(=O)O` [methionine sulfone], in data set [1], the “Decreased in urine” value is reported as “✓”. For the same molecule, the Status result in data set [2] (setting [4]) is on record as “Group 1”. In the case of `O=C(O)CCCC(=O)C(=O)O` [2-oxoadipate], the “Decreased in urine” value in data set [1] is “✓”. The Status result in data set [2] (setting [4]) is reported as “Group 4”. As to `Cc1ccc(OS(=O)(=O)O)cc1` [p-cresol sulfate], in data set [1], the “Elevated in plasma” value was “✓”, the “plasma level” value is on record as “significantly elevated in the plasma” and the “Decreased in urine” value is listed as “✓”. Moreover, the Status result in data set [2] (setting [4]) is on record as “Group 2”. Take `CC(CCC[C@@H](C)[C@H]1CC[C@H]2[C@@H]3[C@H](O)CC4=CC(=O)CC[C@]4(C)[C@H]3CC[C@]12C)C(=O)O` (stereo partly shown) [7-HOCA]: the Status entry in data set [2] (setting [4]) was “Group 3”. With `O=C(O)CNC(=O)Cc1ccccc1` [phenylacetylglycine], the “Elevated in plasma” value in data set [1] was “✓”. Further, in data set [2] (setting [4]), the Status entry is listed as “Group 2”. With `CC(=O)N[C@@H](CCCCNC(N)=O)C(=O)O` [N-acetylhomocitrulline], the “Decreased in urine” value in data set [1] is “✓”. Besides, in data set [2] (setting [4]), the Status entry is recorded as “Group 3”. Consider `CN1CCC[C@H]1C(=O)O` [N-methylproline], for which, in data set [2] (setting [4]), the Status entry is recorded as “Group 4”.

On to `C[C@@H](C(=O)O)N(C)C` [N,N-dimethylalanine], for which the Status entry in data set [2] (setting [4]) was “Group 1”. For `O=C(O)/C=C/c1ccccc1` [cinnamate], the Status result in data set [2] (mouse, in vivo) is “Group 4”. Regarding `O=S(=O)(O)Oc1ccccc1O` [catechol sulfate], the “Decreased in urine” value in data set [1] is recorded as “✓”. Also, the Status entry in data set [2] (setting [4]) is reported as “Group 2”. On to `C=CCc1ccc(OS(=O)(=O)O)cc1` [4-allylphenol sulfate], for which the “Decreased in urine” value in data set [1] was “✓”. Moreover, the Status result in data set [2] (setting [4]) is on record as “Group 2”. Take `CC(=O)N[C@@H](CCCCN(C)C)C(=O)O` [N2-acetyl,N6,N6-dimethyllysine]: in data set [1], the “Decreased in urine” value is recorded as “✓”. Besides, the Status result in data set [2] (setting [4]) is recorded as “Group 3”. Consider `O=C(O)Cc1cccc2cc[nH]c12` [1H-indole-7-acetic acid], for which, in data set [2] (setting [4]), the Status result is reported as “Group 2”. On the same count and under the same terms, next, `Cn1cncc1C[C@H](N)C(=O)O` [3-methylhistidine]: “Group 2”. With `O=C(O)CCc1c[nH]c2ccccc12` [indolepropionate], in data set [3], the IC50 came to 39.2 µM and the “In vitro cell–based transport assay” value was “× (this work)”. In the case of `[H]/N=C(/N)NCC(=O)O` [guanidinoacetate], the Status result in data set [2] (setting [4]) is listed as “Group 3”. The same measure, in the same setting: for `Cn1cncc1CC(O)C(=O)O` (stereo not shown) [1-methyl-5-imidazolelactate] the value was “Group 1”. In the case of `O=S(=O)(O)Oc1c[nH]c2ccccc12` [3-indoxyl sulfate], in data set [1], the “Elevated in plasma” value is recorded as “✓”, the “plasma level” value is reported as “significantly elevated in the plasma” and the “Decreased in urine” value is listed as “✓”. As to `O=C(O)CCC(=O)NCCS(=O)(=O)O` [succinoyltaurine], the “Decreased in urine” value in data set [1] is recorded as “✓”. Moreover, the Status entry in data set [2] (setting [4]) is recorded as “Group 1”.

As to `O=C1O[C@H]([C@@H](O)CO)C(OS(=O)(=O)O)=C1O` [ascorbic acid 3-sulfate*], in data set [2] (setting [4]), the Status entry was “Group 1”.
